Results published in US20160082036A1, “HYDROXYALKYL STARCH FOR THE TREATMENT OF CANCERS BY REDUCTION OF TUMOR GROWTH RATES” (Fresenius Kabi Deutschland GmbH, priority 2012, published 2016).

What was measured:
[1] = system: human breast cell carcinoma line MT-3; assay: Example 1: MT-3 xenograft tumor growth after single i.v. injection; format: in vivo
Experimental: (§1) Summary: Mice were either treated with a single i.v. injection of docetaxel (Taxotere®) at a dose of 25 mg/kg or with the plasma expander Voluven® (20 ml/kg) or with “HES 100/1.0” (approx. 740 mg/kg) dissolved in saline to determine tumor growth and body weight over the course of the experiment.
Docetaxel (available under the name Taxotere®) was obtained from Sanofi-Aventis Deutschland GmbH, (Lot CHB D9C895; Berlin, Germany) and was stored in the dark at −20° C. until use. […] “HES 100/1.0” (as specified in table 2 above) was dissolved in saline.
The final solution of docetaxel was prepared immediately before injection by mixing an appropriate volume of the original stock solution provided by Sanofi (20 mg/ml) with saline (0.9% NaCl, B. Braun Melsungen AG, Melsungen, Germany) as indicated in table 4 below. Saline was mixed with absolute ethanol to obtain an approx. 6.25% solution, the original vehicle of Taxotere®. Voluven® was used in the original formulation described above.
(§2) Adult female NMRI:nu/nu mice (TACONIC Europe, Lille Skensved, Denmark) bred in the own (EPO) colony were used throughout the study.
The MT-3 cell line was used for subcutaneous (s.c.) xenotransplantation in immune deficient female NMRI:nu/nu mice. […]
On study day 0 each 5×10^6 tumor cells were transplanted s.c. into the flank of each mouse. The animals were monitored for tumor growth and when tumors were palpable, generally between day 7 and day 10 after transplantation, mice were randomised into the treatment groups. […]
Individual tumor diameters were measured two times weekly with a calliper. Tumor volumes were calculated according to V=(length×(width)^2)/2. […] At each measurement day the median and mean tumor volumes per group and also the treated to control (T/C RTV) values in percent were calculated. […]

[2] = Example 1: body weight and blood parameters of MT-3 tumor-bearing mice; format: in vivo, NMRI:nu/nu mice
Experimental: as §1, §2
(§3) The application volume was 10 ml/kg (approx. 200 μl/20 g mouse) mouse body weight for vehicle, HES 100/1.0 and docetaxel and 20 ml/kg for Voluven®. The route of administration was by intravenous (i.v.) injection into the tail vein.
(§4) Individual body weights of mice were determined two times weekly and mean body weight per treatment group.
(§5) Blood samples were drawn from the retro-orbital sinus under iso-flurane anaesthesia three days after the treatment. Blood samples of 50-100 μl were taken into tubes prepared with EDTA for haematological parameters from a subset of each group (generally 30-50%). The following parameters were determined: total leucocyte count (WBC), erythrocyte count (RBC), haemoglobin (HGB), haematocrit (HCT), mean corpuscular volume (MCV), mean corpuscular haemoglobin (MCH), mean corpuscular haemoglobin concentration (MCHC) and platelet count (PLT) using a Coulter Counter instrument.
(§6) Statistical evaluation of was performed with the U-test of Mann and Whitney using the Windows program […] 6. A significance level of p<0.05 was used.

[3] = system: human breast cell carcinoma line MT-3; assay: Example 2: MT-3 xenograft tumor growth after single i.v. injection; format: in vivo
Experimental: (§7) Summary: Mice were either treated with a single i.v. injection of docetaxel (Taxotere®) at a dose of 25 mg/kg or with the plasma expander Voluven® (20 ml/kg) or with HES 100/1.0 (approx. 740 mg/kg) dissolved in saline/EtOH to determine tumor growth and body weight over the course of the experiment.
Docetaxel (available under the name Taxotere®) was obtained from Sanofi-Aventis Deutschland GmbH, (Lot CHB D9C895; Berlin, Germany) and was stored in the dark at −20° C. until use. […] HES 100/1.0 (as specified in table 2 above) was dissolved in saline/EtOH.
The final solution of docetaxel was prepared immediately before injection by mixing an appropriate volume of the original stock solution provided by Sanofi (20 mg/ml) with saline (0.9% NaCl, B. Braun Melsungen AG, Melsungen, Germany) as indicated in the table 6 below. Saline was mixed with absolute ethanol to obtain an approx. 6.25% solution, the original vehicle of Taxotere®. Voluven® was used in the original formulation described above.
as §2
The MT-3 cell line was used for subcutaneous (s.c.) xenotransplantation in immune deficient female NMRI:nu/nu mice. The MT-3 breast carcinoma cell line was obtained from the tumor bank of the National Cancer Institute of the former USSR, WONZ, Moscow (Naundorf H. Rewasowa E. Fichtner I et al. Characterization of two human mammary carcinomas, MT-1 and MT-3, suitable for in vivo testing of ether lipids and their derivatives. Breast Cancer Res Treat. 1992; 23:87-95).
The cells are cryo-preserved within the EPO tumor bank. Cells were thawed, expanded by in vitro culture and transplanted s.c. as cell suspension (5×10^6 tumor cells/mouse in 200 μl).
On study day 0 each 5×10^6 tumor cells were transplanted s.c. into the flank of each mouse. The animals were monitored for tumor growth and when tumors were palpable, about day 7 after inoculation, mice were randomised into the treatment groups.
as §3
Individual tumor diameters were measured two times weekly with a calliper. Tumor volumes were calculated according to V=(length×(width)^2)/2. For calculation of the relative tumor volume (RTV) the tumor volumes at each measurement day were related to the day of first treatment. At each measurement day the median and mean tumor volumes per group and also the treated to control (T/C RTV) values in percent were calculated.
Mice were sacrificed when tumors reached a mean size above 1 cm^3 per group. On the day of necropsy mice were sacrificed by cervical dislocation and inspected for gross organ changes.
as §6

[4] = Example 2: body weight and blood parameters of MT-3 tumor-bearing mice; format: in vivo, NMRI:nu/nu mice
Experimental: as §7, §2, §3, §4, §5, §6

[5] = parameters: species or system NMRI:nu/nu mice; conditions: mouse, in vivo
Experimental: Hydroxyethyl starch compounds were obtained from Fresenius Kabi Deutschland GmbH on Dec. 7, 2012 and were stored at room temperature until use. The compounds each were dissolved in saline to obtain 10% w/v solutions. The application was 400 μl/20 g mouse body weight for saline and HES solutions, while Docetaxel was given in a volume of 10 ml/kg as slow bolus. The route of administration was intravenously for all mice.
Adult female NMRI:nu/nu mice (TACONIC Europe, Lille Skensved, Denmark) bred in the own (EPO) colony were used throughout the study. At the start of experiment they were 6-8 weeks of age.
In study 3 mice were sacrificed when the tumor size reached more than 1.5 cm^3, or the tumors ulcereted. Study 3 was finished when the mean TV was in most groups larger than 1.0 cm^3.
On the day of necropsy mice were sacrificed by cervical dislocation and inspected for gross organ changes.

[6] = single i.v. dose at day 7 after inoculation, MT-3 s.c. in NMRI:nu/nu mice, in cm3 (unit assumed)
[7] = blood drawn three days after single i.v. treatment

CC(=O)O[C@@]12CO[C@@H]1C[C@H](O)[C@@]1(C)C(=O)[C@H](O)C3=C(C)[C@@H](OC(=O)[C@H](O)[C@@H](NC(=O)OC(C)(C)C)c4ccccc4)C[C@@](O)([C@@H](OC(=O)c4ccccc4)[C@H]21)C3(C)C [Docetaxel]
Tumor volume (mean) at day 34 [1, 6]: 0.930 ± 0.395 | Tumor volume (mean) nadir [1, 6]: 0.072 ± 0.047 | inhibition of tumor growth (in words) ([1]; single i.v. treatment, compared to control group, FIG. 4): significant inhibition of tumor growth | body weight development (in words) ([2]; after single i.v. treatment, FIG. 3): Body weight loss | leucopenia (in words) ([2]; after single i.v. treatment, table 5): slight but significant leucopoenia | Platelets × 10^6 at day 10 [2, 7]: 1418 ± 85 × 10^6 | WBC × 10^6 at day 10 [2, 7]: 3.09 ± 0.76 × 10^6 | effect on platelet counts (in words) ([2]; compared to saline+EtOH treated group): no significant effect on the platelet counts | tumor size at day 8 ([3]; day 8 after inoculation (day of dosing)): 0.0866 cm^3 | Tumor volume (mean) cm^3/day 25 ([3]; single i.v. dose at day 8 after inoculation): 0.343 cm^3 | tumor size at day 10 ([3]; single i.v. dose day 8): 0.1046 cm^3 | tumor size at day 15 ([3]; single i.v. dose day 8): 0.1228 cm^3 | tumor size at day 18 ([3]; single i.v. dose day 8): 0.1995 cm^3 | tumor size at day 22 ([3]; single i.v. dose day 8): 0.2465 cm^3 | tumor size at day 25 ([3]; single i.v. dose day 8): 0.3430 cm^3 | inhibition of tumor growth (in words) ([3]; single i.v. treatment, compared to control group, table 8, FIG. 2): significant inhibition of tumor growth | body weight development (in words) ([4]; after single i.v. treatment, FIG. 1): Body weight loss | Platelets × 10^6 at day 11 [4, 7]: 1500 ± 156 × 10^6 | WBC × 10^6 at day 11 [4, 7]: 4.80 ± 0.58 × 10^6 | body weight (in words) [5]: moderate body weight loss | general toxicity, clinical sign (in words) ([5]; iv): apathy
